System: cotton
Assay: Phosphorous fixation field test with DAP on cotton
Type: in vivo
Details: for % by weight Phosphorous in Tissue: cotton tissue prior to first bloom
Description: In a field test, two rates of phosphorous as diammonium phosphate (DAP) were broadcast-applied as a pre-plant fertilizer to a cotton field, namely 65 lbs of DAP per acre and 130 lbs of DAP per acre. The tests were two replications each of an unfertilized control, a DAP-only control, and DAP mixed with 0.25% w/w of a Class I polymer formulation. The formulation included 40% w/w of a partial zinc/sodium salt of T5 polymer, 5% w/w zinc, and the balance water, pH about 3,
Tissue tests were taken prior to first bloom from each plot, and the percent of phosphorous in the plant tissue was measured. After harvesting, lint yields were measured.

N.N.O=P(O)(O)O [DAP, diammonium phosphate]
Lint Yield (65 lbs of DAP per acre): 712 lbs/acre | % by weight Phosphorous in Tissue (65 lbs of DAP per acre): 0.41 % by weight | Lint Yield (130 lbs of DAP per acre): 781 lbs/acre | % by weight Phosphorous in Tissue (130 lbs of DAP per acre): 0.41 % by weight

Source: patent US10059636B2, “Pesticide product including polyanionic polymers” (Verdesian Life Sciences, LLC, priority 2013, dated 2018)
